# Measured values published in patent US20060147936A1, “Use of a gene mutation in the human gnas gene for predicting risks of diseases, courses of the disease and for predicting the response to disease therapies” (priority 2003, published 2006).
# Key:
# human fat cells = experiment: isoprenaline-stimulated lipolysis (glycerol release) in human fat cells ex vivo; type: cell-based; conditions: compared with other genotypes
# Source text: For this purpose, human fat cells ex vivo were stimulated with isoprenaline and lipolysis quantified on the basis of glycerol release (Hauner H et al. Effects of the G protein beta3 subunit 825T allele on adipogenesis and lipolysis in cultured human preadipocytes and adipocytes. Horm Metab Res. 2002;34(9):475-80). […] This agrees with the observation of increased expression of Gαs protein in this genotype.
# In fat cells from humans with the GG genotype, there is increased lipolysis, measured as the release of glycerol. […] This also agrees with the observation that persons with the GG genotype on a low calorie diet lose more weight than persons with the AA/AG genotype.
# [1] = metformin therapy for 12 months in women with PCOS: HOMA-IR index and BMI; type: in vivo, human; conditions: metformin 12 months
# Description: Polycystic ovarian syndrome (PCOS) is a frequent endocrine disease, characterized by chronic anovulation and hyperandrogenism. About 5% of all premenopausal women are affected by this. […] Treatment of PCOS patients with metformin improves fertility and androgen levels, reduces insulin resistance and facilitates weight reduction. For this purpose, women with the PCOS syndrome were treated with metformin for 12 months. Changes in the Body Mass Index (BMI) and insulin resistance according to the HOMA-IR method (homeostasis model assessment for insulin resistance) were investigated, together with the GNAS genotypes of the T393C polymorphism. FIG. 22A shoes the influence of therapy with an oral antidiabetic(metformin) on insulin resistance(A) and Body Mass Index (BMI; B) in women with polycystic ovaries. As already mentioned, therapy was carried out with metformin for 12 months. The change in the HOMA-IR index is given as a measure of the insulin resistance. It is evident that the most marked improvement of the HOMA-IR index is in individuals with the CC genotype(2.9), in contrast to 2.2 with the TC genotype and only 0.9 with the TT genotype. […] The changes in the BMI (a measure of body fat) behave similarly. […] This includes not only metformin, but also the so-called glitazones, tolbutamide, sulfonylureas and their derivatives, glinides and arcabose.
# [2] = placebo-controlled, double blind study of sibutramine in obese patients: loss of weight after one year; type: in vivo, human; conditions: 15 mg/day for one year
# Description: (§1) In the context of a placebo-controlled, double blind study, obese patients were given 15 mg sibutramine/day for one year. Sibutramine is a centrally active re-uptake inhibitor of noradrenaline and serotonin, both of which act through G protein-coupled receptors. Sibutramine (trade-name: Reductil, Meridia) enhances the feeling of satiety and makes it easier to lose weight in the context of structured measures to reduce weight (increase in physical activity, reduction in calorie intake). The outcome parameter of the study was the weight loss after one year.
# The placebo or sibutramine (15 mg/day) were administered for one year. The loss of weight after one year (%) is illustrated, in dependence on the GNAS T393C genotype.
# In addition, the study population was genotyped with respect to the GNAS G(-1211)A polymorphism (FIG. 19B). […] Placebo or sibutramine (15 mg/day) was administered for one year. The loss of weight (%) after one year is illustrated in dependence on the GNAS G(1211)A genotype. In the placebo group, patients with GNAS (-1211) GG genotype clearly could lose weight better(7.3%) than those with the AA- and AG genotype (1.8 and 3.1%, respectively). […] Thus therapy with sibutramine is predominantly indicated for patients with AG/AA genotype, whereas patients with CC genotype can also lose weight well under placebo. The time courses of the loss of weight for each genotype of the 393CT393C polymorphism (sibutramine versus placebo) are shown in FIGS. 20A, 20B and 20C. FIGS. 20 A, B and C illustrate the individual time courses for the changes in weight with placebo or sibutramine for the GNAS 393 CC genotype (A), the TC genotype (B) and the TT genotype (C). It is evident that only the TC and TT genotypes benefit from therapy with 15 mg sibutramine daily, whereas CC genotypes can lose weight without drug.
# [3] = cardiovascular side-effects (heart rate, blood pressure) under therapy with sibutramine versus placebo; type: in vivo, human
# Description: as §1
# The connection between gene modifications in the GNAS gene and the change in heart rate was examined after treatment with sibutramine versus placebo (FIG. 25). The effects are illustrated as they depend on the T393C polymorphism. […] FIG. 26 makes clear the possible use of a gene modification in the human GNAS gene to predict the increase in diastolic blood pressure during treatment with sibutramine.
# FIG. 27 illustrates once again the possible use of a gene modification in the human GNAS gene to predict an increase in the heart rate during therapy with sibutramine. This illustrates the effects, in dependence on genotypes of the G(-1211)A polymorphism. […] Finally, FIG. 28 illustrates the possibility of an additional use of a gene modification in the human GNAS gene in the prediction of an increase in systolic blood pressure during therapy with sibutramine.
smiles,measurement,setting,value
CC(C)NCC(O)c1ccc(O)c(O)c1 (stereo not shown) [isoprenaline],stimulation of lipolysis (glycerol release),human fat cells; fat cells from humans with GNAS G(-1211)A GG genotype,most marked stimulation of lipolysis
same,stimulation of lipolysis (glycerol release),human fat cells; fat cells from individuals with GNAS 393 TT genotype,most marked stimulation of lipolysis
CN(C)C(=N)N=C(N)N [metformin],decrease in the BMI,[1]; GNAS T393C CC genotype,15.8%
same,improvement of the HOMA-IR index (insulin resistance),[1]; GNAS T393C CC genotype,2.9
same,decrease in the BMI,[1]; GNAS T393C TC genotype,4.8%
same,improvement of the HOMA-IR index (insulin resistance),[1]; GNAS T393C TC genotype,2.2
same,decrease in the BMI,[1]; GNAS T393C TT genotype,1.5%
same,improvement of the HOMA-IR index (insulin resistance),[1]; GNAS T393C TT genotype,0.9
CC(C)CC(N(C)C)C1(c2ccc(Cl)cc2)CCC1 (stereo not shown) [sibutramine],"loss of weight after one year, sibutramine vs placebo",[2]; GNAS G(-1211)A AG and AA genotype,marked (p=0.027) increase in the loss of weight
same,"loss of weight after one year, sibutramine vs placebo",[2]; GNAS G(-1211)A GG genotype,favorable drug effect was not observed
same,"loss of weight after one year, sibutramine vs placebo",[2]; GNAS T393C CC genotype,favorable drug effect was not observed
same,"loss of weight after one year, sibutramine vs placebo",[2]; GNAS T393C TC and TT genotype,clear (p=0.027) increase in the loss of weight
same,change in diastolic blood pressure during therapy with sibutramine,[3]; GNAS 393 CC and TC genotypes,does not occur
same,change in diastolic blood pressure during therapy with sibutramine,[3]; GNAS 393 TT genotype,significant increase
same,change in systolic blood pressure under therapy with sibutramine,[3]; GNAS -1211 GG genotype,lack of reduction of the systolic blood pressure
same,change in heart rate (sibutramine versus placebo),[3]; GNAS G(-1211)A GG genotype compared with AA/AG genotypes,significantly greater change in heart rate
same,increase in heart rate with sibutramine versus placebo,[3]; GNAS T393C CC genotype,This effect does not occur
same,increase in heart rate with sibutramine versus placebo,[3]; GNAS T393C TC genotype,10 beats per minute
same,increase in heart rate with sibutramine versus placebo,[3]; GNAS T393C TT genotype,20 beats per minute
